# In patent publication US20220016101A1 (ACADIA Pharmaceuticals Inc., priority 2018, published 2022):
# Test system: patients with MDD and an inadequate response to an SSRI or SNRI
# Assay: Massachusetts General Hospital Sexual Functioning Index (MGH-SFI), Study ACP-103-042
# Format: in vivo, human
# Excerpt: “Massachusetts General Hospital Sexual Functioning Index (MGH-SFI)” is described, for instance, in Labbate and Lare, 2001, Psychother Psychosom. 70(4):221-225. This is a patient facing questionnaire that quantifies sexual dysfunction into 5 functional domains (“interest in sex,” “sexual arousal,” “ability to achieve orgasm,” “ability to maintain erection” (males only), and “sexual satisfaction”). Patients rate each item using a 6-point scale ranging from 1 (good function) to 6 (poor function). High scores indicate poor sexual functioning. […] The determination of the subject's status and eligibility for randomization in Stage 2 was made in a double-blind manner. […] Sexual functioning was assessed using the Massachusetts General Hospital Sexual Functioning Index or MGH-SFI (Labbate and Lare, 2001, Psychother Psychosom. 70(4):221-225). This is a patient facing questionnaire that quantifies sexual dysfunction into 5 functional domains (“interest in sex,” “sexual arousal,” “ability to achieve orgasm,” “ability to maintain erection” [malesonly], and “sexual satisfaction”). Patients rate each item using a 6-point scale ranging from 1 (good function) to 6 (poor function). The time frame for this scale is the past month. This scale was administered at baseline and Week 5 in both stages of the study. High scores indicate poor sexual functioning. In ACP-103-042 the mean scores for MGH-SFI at Baseline was calculated over all 5 domains for males and the 4 domains for females. For MGH-SFI (follow-up version) at Study Weeks 5 and 10, the mean was calculated in the same way as MGH-SFI at Baseline. […] Tables 10-27 summarize the detailed data of MGH-SFI individual items of the overall study group (Tables 10-15), the subgroup of age of <=50 (Tables 16-21) and the subgroup of age of >50 (Table 21-26). In Tables 9-26, ANCOVA=analysis of covariance; OC=observed cases; LSM=least squares mean; CI=confidence interval; SD=standard deviation; SE=standard error. Stage 1: Baseline=Study Week 0, Week 5=Study Week 5; Stage 2: Baseline=Study Week 5, Week 5=Study Weeks 10. LSM from the stage-specific ANCOVA analysis with the change from baseline as the outcome, treatment group as a factor, and the corresponding Baseline value as a covariate. 2-sided p-value for treatment difference from the stage-specific ANCOVA analysis. An treatment effect size (Cohen's d) is calculated using the formula: Effect Size=Least Square mean difference between PIM and PBO/SD. The corresponding 95% confidence interval for an effect size is calculated based on the theoretical probability distribution of the effect size. […] Tables 10-15 and 28-38 summarize the detailed data of MGH-SFI individual items of the overall study group (Tables 10-15), the female subgroup (Tables 33-37) and the male subgroup (Table 38-43). An treatment effect size (Cohen's d) is calculated using the formula: Effect Size=Least Square mean difference between PIM and PBO/SD. The corresponding 95% confidence interval for an effect size is calculated based on the theoretical probability distribution of the effect size. In Tables 10-15 and 28-38, ANCOVA=analysis of covariance; OC=observed cases; LSM=least squares mean; CI=confidence interval; SD=standard deviation; SE=standard error. Stage 1: Baseline=Study Week 0, Week 5=Study Week 5; Stage 2: Baseline=Study Week 5, Week 5=Study Weeks 10. LSM from the stage-specific ANCOVA analysis with the change from baseline as the outcome, treatment group as a factor, and the corresponding Baseline value as a covariate. 2-sided p-value for treatment difference from the stage-specific ANCOVA analysis. An treatment effect size (Cohen's d) is calculated using the formula: Effect Size=Least Square mean difference between PIM and PBO/SD. The corresponding 95% confidence interval for an effect size is calculated based on the theoretical probability distribution of the effect size.
# [1] = Stage 2, Overall Study Group, 34 mg QD + SSRI/SNRI
# [2] = Stage 2, Subgroup of <=50 Years
# [3] = Stage 2, Subgroup of <=50 Years Old
# [4] = Stage 2, Subgroup of <=50 Years Old, 34 mg QD + SSRI/SNRI
# [5] = female subgroup, Stage 1 (Study Week 0 to 5), PIM 34 mg
# [6] = female subgroup, Stage 1 (Study Week 5), PIM 34 mg
# [7] = female subgroup, Stage 1, positive = pimavanserin better than placebo
# [8] = female subgroup, Stage 2 (Study Week 5 to 10), PIM 34 mg
# [9] = female subgroup, Stage 2 (Study Week 10), PIM 34 mg
# [10] = female subgroup, Stage 2, positive = pimavanserin better than placebo
compound,measurement,setting,value
"CC(C)COc1ccc(CNC(=O)N(Cc2ccc(F)cc2)C2CCN(C)CC2)cc1 [pimavanserin, N-(4-Fluorophenylmethyl)-N-(1-methylpiperidin-4-yl)-N′-(4-(2-methylpropyloxy)phenylmethyl)carbamide]","MGH-SFI 05: Overall Sexual Satisfaction, Effect Size (Cohen's d)","Stage 2, Overall Study Group",0.404
same,"MGH-SFI 05: Overall Sexual Satisfaction, Week 5 Median","Stage 2, Overall Study Group",4.5
same,"MGH-SFI 06: Overall Improvement Since Last Medication Change, Effect Size (Cohen's d)","Stage 2, Overall Study Group",0.227
same,"MGH-SFI 06: Overall Improvement Since Last Medication Change, Week 5 Median","Stage 2, Overall Study Group",4.0
same,"MGH-SFI 01: Interest in Sex, Week 5 Mean (SE)",[1],4.1 (0.28)
same,"MGH-SFI 02: Ability to Get Sexually Aroused or Excited, Week 5 Mean (SE)",[1],4.2 (0.27)
same,"MGH-SFI 03: Ability to Achieve Orgasm, Week 5 Mean (SE)",[1],4.3 (0.32)
same,"MGH-SFI 04: (Men) Ability to Get and Maintain an Erection, Week 5 Mean (SE)",[1],3.1 (0.54)
same,"MGH-SFI 05: Overall Sexual Satisfaction, Week 5 Mean (SE)",[1],4.1 (0.33)
same,"MGH-SFI 06: Overall Improvement Since Last Medication Change, Week 5 Mean (SE)",[1],3.6 (0.25)
same,"MGH-SFI 01: Interest in Sex, Change from Baseline to Week 5 Mean (SE)",[2],−0.3 (0.21)
same,"MGH-SFI 01: Interest in Sex, Change from Baseline to Week 5 Median",[2],0.0
same,"MGH-SFI 01: Interest in Sex, Effect Size (Cohen's d)",[2],0.081
same,"MGH-SFI 01: Interest in Sex, Week 5 Median",[2],4.0
same,"MGH-SFI 02: Ability to Get Sexually Aroused or Excited, Change from Baseline to Week 5 Mean (SE)",[3],−0.3 (0.25)
same,"MGH-SFI 02: Ability to Get Sexually Aroused or Excited, Change from Baseline to Week 5 Median",[3],−1.0
same,"MGH-SFI 02: Ability to Get Sexually Aroused or Excited, Effect Size (Cohen's d)",[3],0.017
same,"MGH-SFI 02: Ability to Get Sexually Aroused or Excited, Week 5 Median",[3],4.0
same,"MGH-SFI 03: Ability to Achieve Orgasm, Change from Baseline to Week 5 Mean (SE)",[3],−0.3 (0.25)
same,"MGH-SFI 03: Ability to Achieve Orgasm, Change from Baseline to Week 5 Median",[3],0.0
same,"MGH-SFI 03: Ability to Achieve Orgasm, Effect Size (Cohen's d)",[3],0.449
same,"MGH-SFI 03: Ability to Achieve Orgasm, Week 5 Median",[3],4.0
same,"MGH-SFI 02: Ability to Get Sexually Aroused or Excited, Week 5 Mean (SE)",[4],4.1 (0.33)
same,"MGH-SFI 03: Ability to Achieve Orgasm, Week 5 Mean (SE)",[4],4.1 (0.40)
same,"MGH-SFI 01: Interest in Sex, Week 5 Mean (SE)","Stage 2, Subgroup of <=50 Years, 34 mg QD + SSRI/SNRI",3.9 (0.36)
same,"MGH-SFI Items effect sizes, mean change from baseline to Week 5 vs placebo",female patients,> 0.5
same,"MGH-SFI 01: Interest in Sex, Change from Baseline to Week 5 Mean (SE)",[5],−0.9 (0.21)
same,"MGH-SFI 01: Interest in Sex, Change from Baseline to Week 5 Median",[5],−1.0
same,"MGH-SFI 02: Ability to Get Sexually Aroused or Excited, Change from Baseline to Week 5 Mean (SE)",[5],−0.8 (0.17)
same,"MGH-SFI 02: Ability to Get Sexually Aroused or Excited, Change from Baseline to Week 5 Median",[5],−1.0
same,"MGH-SFI 03: Ability to Achieve Orgasm, Change from Baseline to Week 5 Mean (SE)",[5],−1.2 (0.27)
same,"MGH-SFI 03: Ability to Achieve Orgasm, Change from Baseline to Week 5 Median",[5],0.0
same,"MGH-SFI 05: Overall Sexual Satisfaction, Change from Baseline to Week 5 Mean (SE)",[5],−0.9 (0.26)
same,"MGH-SFI 05: Overall Sexual Satisfaction, Change from Baseline to Week 5 Median",[5],0.0
same,"MGH-SFI 01: Interest in Sex, Week 5 Mean (SE)",[6],3.7 (0.29)
same,"MGH-SFI 01: Interest in Sex, Week 5 Median",[6],4.0
same,"MGH-SFI 02: Ability to Get Sexually Aroused or Excited, Week 5 Mean (SE)",[6],3.7 (0.28)
same,"MGH-SFI 02: Ability to Get Sexually Aroused or Excited, Week 5 Median",[6],3.5
same,"MGH-SFI 03: Ability to Achieve Orgasm, Week 5 Mean (SE)",[6],3.8 (0.28)
same,"MGH-SFI 03: Ability to Achieve Orgasm, Week 5 Median",[6],4.0
same,"MGH-SFI 05: Overall Sexual Satisfaction, Week 5 Mean (SE)",[6],3.8 (0.29)
same,"MGH-SFI 05: Overall Sexual Satisfaction, Week 5 Median",[6],3.5
same,"MGH-SFI 06: Overall Improvement Since Last Medication Change, Week 5 Mean (SE)",[6],3.2 (0.17)
same,"MGH-SFI 06: Overall Improvement Since Last Medication Change, Week 5 Median",[6],4.0
same,"MGH-SFI 01: Interest in Sex, Effect Size (Cohen's d)",[7],0.561
same,"MGH-SFI 02: Ability to Get Sexually Aroused or Excited, Effect Size (Cohen's d)",[7],0.616
same,"MGH-SFI 03: Ability to Achieve Orgasm, Effect Size (Cohen's d)",[7],0.749
same,"MGH-SFI 05: Overall Sexual Satisfaction, Effect Size (Cohen's d)",[7],0.627
same,"MGH-SFI 06: Overall Improvement Since Last Medication Change, Effect Size (Cohen's d)",[7],0.634
same,"MGH-SFI 01: Interest in Sex, Change from Baseline to Week 5 Mean (SE)",[8],−0.3 (0.17)
same,"MGH-SFI 01: Interest in Sex, Change from Baseline to Week 5 Median",[8],0.0
same,"MGH-SFI 02: Ability to Get Sexually Aroused or Excited, Change from Baseline to Week 5 Mean (SE)",[8],−0.3 (0.20)
same,"MGH-SFI 02: Ability to Get Sexually Aroused or Excited, Change from Baseline to Week 5 Median",[8],0.0
same,"MGH-SFI 03: Ability to Achieve Orgasm, Change from Baseline to Week 5 Mean (SE)",[8],−0.3 (0.20)
same,"MGH-SFI 03: Ability to Achieve Orgasm, Change from Baseline to Week 5 Median",[8],0.0
same,"MGH-SFI 05: Overall Sexual Satisfaction, Change from Baseline to Week 5 Mean (SE)",[8],−0.4 (0.26)
same,"MGH-SFI 05: Overall Sexual Satisfaction, Change from Baseline to Week 5 Median",[8],0.0
same,"MGH-SFI 01: Interest in Sex, Week 5 Mean (SE)",[9],4.4 (0.34)
same,"MGH-SFI 01: Interest in Sex, Week 5 Median",[9],5.0
same,"MGH-SFI 02: Ability to Get Sexually Aroused or Excited, Week 5 Mean (SE)",[9],4.5 (0.32)
same,"MGH-SFI 02: Ability to Get Sexually Aroused or Excited, Week 5 Median",[9],5.0
same,"MGH-SFI 03: Ability to Achieve Orgasm, Week 5 Mean (SE)",[9],4.6 (0.38)
same,"MGH-SFI 03: Ability to Achieve Orgasm, Week 5 Median",[9],5.0
same,"MGH-SFI 05: Overall Sexual Satisfaction, Week 5 Mean (SE)",[9],4.6 (0.38)
same,"MGH-SFI 05: Overall Sexual Satisfaction, Week 5 Median",[9],5.0
same,"MGH-SFI 06: Overall Improvement Since Last Medication Change, Week 5 Mean (SE)",[9],3.6 (0.29)
same,"MGH-SFI 06: Overall Improvement Since Last Medication Change, Week 5 Median",[9],4.0
same,"MGH-SFI 01: Interest in Sex, Effect Size (Cohen's d)",[10],0.073
same,"MGH-SFI 02: Ability to Get Sexually Aroused or Excited, Effect Size (Cohen's d)",[10],−0.064
same,"MGH-SFI 03: Ability to Achieve Orgasm, Effect Size (Cohen's d)",[10],0.132
